In patent US20190015385A1, “VITAMIN E PHOSPHATE OR ACETATE FOR USE IN THE TREATMENT AND PREVENTION OF BIOFILM INFECTIONS” (priority 2016, published 2019):

Assays:
[1] = test system: S. aureus, S. epidermidis, E. coli, P. aeruginosa and C. albicans (all the strains tested); test: Antimicrobial activity, MIC by broth microdilution (Example 1); format: cell-based; details: mean over all strains tested; VitE diluted in hyaluronic acid; read after 24 hours at 37° C.
Description: The microbial strains utilized in this study were isolated from clinical samples collected from bone and soft tissue infections. In particular, strains of S. aureus, S. epidermidis, E. coli, P. aeruginosa and C. albicans were utilized. They were identified beforehand by means of biochemical assays and examined to assess their ability to produce biofilms, according to the spectrometric assay described by Christensen et al. (1985). The microorganisms were stored at −80° C. prior to the analysis. Prior to use, the strains were thawed and cultivated in an appropriate culture medium at 37° C. for 24 h. Antimicrobial activity was assessed by determining the minimum inhibitory concentration (MIC). MIC, defined as the lowest concentration of an antimicrobial substance that inhibits the visible growth of a microorganism, was determined using the broth microdilution method, in accordance with the guidelines of the European Committee on Antimicrobial Susceptibility Testing (EUCAST). […] VitE was diluted in hyaluronic acid (HA) at various concentrations, for which the growth checks were performed by inoculating the microbial suspension in BHI+HA. […] The assay was conducted in duplicate and repeated twice.

rats or mice = details: rat or mouse; cited from earlier work
P. aeruginosa [2] = test: Anti-adhesion activity on coated titanium disks, CFU count (Example 3); format: cell-based, Pseudomonas aeruginosa
Description: (§1) Sterile disks of sandblasted titanium with a diameter of 25 mm and a thickness of 5 mm (Adler Ortho, Cormano, Italy) were used as the substrate for the formation of biofilms. The disks were coated with sub-inhibitory concentrations of vitamin E acetate (5 mg/cm^2) or vitamin E phosphate (5 mg/cm^2). The concentrations were selected based on the MIC results. Uncoated disks were used as negative controls. The anti-adhesion activity of vitamin E was assessed against a representative strain for each species. An overnight bacteria culture was resuspended in Brain Heart Infusion Broth (BHI; Biomérieux) at a density of 1.0×10^7 CFU/ml for each strain, and 400 microliters of microbial suspension were inoculated on coated and uncoated disks. The test was performed in triplicate for each strain. After 30, 60 and 120 minutes of incubation, the disks were washed twice with a sterile saline solution to eliminate non-adherent bacteria. The disks were then immersed in 5 ml of a 0.1 w/v % dithiothreitol solution (DTT, Sigma-Aldrich, Milan, Italy) and mechanically stirred for 15 minutes at room temperature. Suitable dilutions of the fluids obtained were inoculated on Tryptic Soy Agar (TSA, Merck) and incubated at 37° C. in an aerobic atmosphere for 24 hours for the CFU count.

S. aureus [3] = test: Anti-biofilm activity on coated titanium disks, CFU count (Example 3); format: cell-based, Staphylococcus aureus; details: 48 hours, 5 mg/cm^2 coating
Description: Coated and uncoated titanium disks were prepared as described above and utilized as the substrate for the formation of biofilms. Subsequently, an overnight bacteria culture was resuspended in Brain Heart Infusion Broth (BHI; Biomérieux) at a density of 1.5×10^8 CFU/ml for each strain, and 200 microliters of microbial suspension were inoculated in sterile polystyrene plates with 6 wells containing coated and uncoated disks and 4.8 ml of BHI. The plates were incubated at 37° C. in an aerobic atmosphere for 24 and 48 hours. The test was performed in triplicate for each strain.
At the end of the biofilm incubation time, the disks were treated as described above and the detached cells of the biofilm were inoculated on Tryptic Soy Agar and incubated at 37° C. in an aerobic atmosphere for 24 hours for the CFU count.

S. aureus [4] = test: MIC and MBC, broth microdilution (Example 3); format: cell-based, Staphylococcus aureus
Source text: (§2) This study used clinically relevant strains isolated from patients with prosthetic joint infections at the Microbiology Laboratory of the IRCCS Galeazzi Orthopaedic institute (Italy). In particular, the following were selected: strains of methicillin-resistant Staphylococcus epidermidis, of methicillin-resistant Staphylococcus aureus and of Pseudomonas aeruginosa. These strains were identified beforehand by means of biochemical assays (VITEK® 2 Compact, bioMérieux, Marcy l'Etoile, France) and stored at −80° C. prior to the analysis. Before beginning the study, all strains were screened to assess their ability to produce biofilms, according to the spectrophotometric assay described by Christensen et al. (J Clin Microbiol 1985; 22: 996-1006).
(§3) The bacteriostatic and bactericidal activity of vitamin E acetate and vitamin E phosphate against the above-mentioned bacterial strains was assessed by measuring the minimum inhibitory concentration (MIC) and the minimum bactericidal concentration (MBC). MIC, defined as the lowest concentration capable of inhibiting bacterial growth, was determined using the broth microdilution method according to EUCAST guidelines (http://www.eucast.org/clinical_breakpoints/).
(§4) In short, a suspension in Brain Heart Infusion Broth (BHI; Biomérieux, Marci l'Etoile, France) was prepared for each bacterial strain, with an optical density of 0.5 McFarland (1.5×10^8 CFU/ml). The P. acnes broth was supplemented with 5% defibrinated sheep blood (Liofilchem, Roseto degli Abruzzi, Italy). After a concentration of 10^5 UFC/ml was obtained using appropriate dilutions, each suspension was inoculated in a 96-well microtitre plate containing a two-fold serial dilution of vitamin E acetate (VitE-Ac) and vitamin E phosphate. The controls were performed by inoculating bacterial suspensions in BHI alone. […] After incubation at adequate conditions, MBC was read as the lowest concentration capable of killing 99.9% of the initial inoculum.

S. aureus [5] = test: Anti-adhesion activity on coated titanium disks, CFU count (Example 3); format: cell-based, Staphylococcus aureus
Description: as §1

P. aeruginosa [6] = test: MIC and MBC, broth microdilution (Example 3); format: cell-based, Pseudomonas aeruginosa
Source text: as §2, §3, §4

S. epidermidis [7] = test: Anti-adhesion activity on coated titanium disks, CFU count (Example 3); format: cell-based, Staphylococcus epidermidis
Description: as §1

S. epidermidis [8] = test: MIC and MBC, broth microdilution (Example 3); format: cell-based, Staphylococcus epidermidis
Source text: as §2, §3, §4

P. acnes = test: MIC and MBC, broth microdilution (Example 3); format: cell-based
Description: as §4, with “MIC, defined as the lowest concentration capable of inhibiting bacterial growth, was determined using the broth microdilution method according to EUCAST guidelines (http://www.eucast.org/clinical_breakpoints/). In short,” for “In short,”, “Infusion Broth ([…], France) was” for “Infusion Broth (BHI; Biomérieux, Marci l'Etoile, France) was”, “sheep blood ([…] Abruzzi, Italy).” for “sheep blood (Liofilchem, Roseto degli Abruzzi, Italy).”

[9] = 5 mg/cm^2 coating, 30, 60 and 120 minutes
[10] = 5 mg/cm^2 coating, range over 30, 60 and 120 minutes

Compound: vitamin E
- mean MIC value [1]: 2.5%
- LD50 (rats or mice): 4000 mg of vitamin E/kg

Compound: Cc1c(C)c2c(c(C)c1OP(=O)([O-])[O-])CC[C@@](C)(CCC[C@H](C)CCC[C@H](C)CCCC(C)C)O2.[Na+].[Na+] [Vitamin E phosphate, α-tocopherol phosphate disodium salt]
- decrease in adhesion (in words) (P. aeruginosa [2]; [9]): significant decrease for all the strains tested, with the exception of the last time period tested for P. aeruginosa
- inhibition of adhesion with respect to the control (P. aeruginosa [2]; [10]): 7-65%
- biofilm reduction with respect to the controls (in words) (S. aureus [3]): significantly inhibited
- bactericidal at the concentrations tested (in words) (S. aureus [4]; S. aureus): bactericidal
- MIC range (S. aureus [4]; S. aureus strains, 24 hours): 25 to 100 mg/mL
- MBC range (S. aureus [4]; S. aureus strains, kills 99.9% of the initial inoculum): 25 to 200 mg/mL
- decrease in adhesion (in words) (S. aureus [5]; [9]): significant decrease
- inhibition of adhesion with respect to the control (S. aureus [5]; [10]): 60-78%
- bactericidal at the concentrations tested (in words) (P. aeruginosa [6]; P. aeruginosa): not against P. aeruginosa
- MIC range (P. aeruginosa [6]; P. aeruginosa strains, 24 hours): 100 to 200 mg/mL
- MBC range (P. aeruginosa [6]; P. aeruginosa strains, kills 99.9% of the initial inoculum): >200 mg/mL
- decrease in adhesion (in words) (S. epidermidis [7]; [9]): significant decrease
- inhibition of adhesion with respect to the control (S. epidermidis [7]; [10]): 84-95%
- bactericidal at the concentrations tested (in words) (S. epidermidis [8]; S. epidermidis): bactericidal
- MIC range (S. epidermidis [8]; S. epidermidis strains, 24 hours): 3.13 to 100 mg/mL
- MBC range (S. epidermidis [8]; S. epidermidis strains, kills 99.9% of the initial inoculum): 25 to 100 mg/mL
- bactericidal at the concentrations tested (in words) (P. acnes): bactericidal
- MIC range (P. acnes; 48 hours, broth with 5% defibrinated sheep blood): 1.56 to 6.25 mg/mL
- MBC range (P. acnes; kills 99.9% of the initial inoculum): 31.25 to 50 mg/mL
